These results are taken from patent US20160266093A1, “CELLS HAVING DISRUPTED EXPRESSION OF PROTEINS INVOLVED IN ADME AND TOXICOLOGY PROCESSES” (SIGMA-ALDRICH CO. LLC, priority 2010, published 2016).

Series [1] relates to MDR1 knockout C2BBe1 cells. The protocol:
(§1) Both wild type cells (parental C2BBe1 cells) and BCRP knockout cells were seeded onto 24-well transwell plates and cultured for 21 days, following a standard protocol for intestinal efflux transporter assays previously developed using Caco-2 cells. The permeability of test compounds in both the apical to basal (A to B) and basal to apical (B to A) directions was measured following a two hour incubation and the efflux values calculated. […] Digoxin is a known MDR1 substrate, while CDCFDA is selective for the MRP2 transporter. Two additional compounds were used as controls, atenolol and metoprolol, which are known to not be substrates for either of these transporters.
(§2) The BCRP and MDR1 transporter genes were individually knocked out and an MDR1/BCRP double knockout was also generated in C2BBe1 cells using zinc finger nuclease technology. Cells were analyzed and expanded as described above and then tested for functional activity in the standard transwell assay. Two substrates were utilized—estrone 3-sulfate as a selective substrate for BCRP and digoxin as a selective substrate for MDR1. Metoprolol was used as a control.

Series [2] has as its system MDR1/BCRP double knockout C2BBe1 cells. As to the method:
as §1, §2

For series [3], the system named is parental C2BBe1 cells (wild type). The settings on record: Caco-2. The protocol:
as §1, §2

Series [4] relates to BCRP knockout C2BBe1 cells. As to the method:
The wild-type BCRP gene was knocked out in C2BBe1 cells using zinc finger nuclease technology to generate a stable cell line. Cells were sorted and single cell cloned. Cells were analyzed for the desired mutations and positive clones were chosen for further expansion and analysis. Quantitative PCR was used to evaluate mRNA expression of the cell and compared to wild type cell. Whole cell lysates prepared from these clones were subjected to immunoblotting for analysis of BCRP protein expression level. […] A single BCRP knockout cell clone was selected for functional characterization of efflux activity using several known transporter-selective substrates (e.g. estrone 3-sulfate, digoxin and CDCFDA).
as §1, §2

`C[C@H]1O[C@@H](O[C@H]2[C@@H](O)C[C@H](O[C@H]3[C@@H](O)C[C@H](O[C@H]4CC[C@@]5(C)[C@H](CC[C@@H]6[C@@H]5C[C@@H](O)[C@]5(C)[C@@H](C7=CC(=O)OC7)CC[C@]65O)C4)O[C@@H]3C)O[C@@H]2C)C[C@H](O)[C@@H]1O` [digoxin]: the efflux ratio result in series [1] was “inhibited”; in series [2] it was “inhibited”; in series [3], “high”; in series [4], “high”. The “efflux ratio in the knockout cells compared to the parental cells” value in series [4] was “unaffected”.
Turning to `C[C@]12CC[C@@H]3c4ccc(OS(=O)(=O)O)cc4CC[C@H]3[C@@H]1CCC2=O` [estrone 3-sulfate], the efflux ratio result in series [1] was “high”; in series [2], “inhibited”; in series [3] it was “high”; in series [4], “inhibited”. The “efflux ratio in the knockout cells compared to the parental cells” value in series [4] is listed as “greatly reduced”.
